Assays:
[1] = target: T1, CB1 receptor (Homo sapiens, UniProt P21554); assay: functional activity versus the CB1 receptor
[2] = target: T2, Human Cannabinoid 1 (CB1) receptor (Homo sapiens, UniProt P21554); assay: Ca2+i response to 2-AG in CB1 cells (Indo-1, DSIS flow cytometry), dose-response with or without compound; assay type: cell-based; conditions: 2-AG with or without compound, FIG. 2
T2 construct: expressed in transfected cells; host or cells: CHO cells stably expressing GqΔGi chimera
Excerpt: cDNA for the G protein GqΔGi chimera was generated by PCR and inserted into the polylinker region of the pcDNA3/hygro+ vector (Invitrogen). Stable expression of GqΔGi chimera protein in CHO cell line was generated under hygromycin selection. Human Cannabinoid 1 (CB1) cDNA was inserted into the polylinker region of the pcDNA3.1/(+) vector (Invitrogen) and DNA was introduced into the GqΔGi/CHO cell line by Lipofectamine reagent (Invitrogen). […]
Cell line optimization was done by a proprietary method using our novel automated Direct Sample Injection System (DSIS, ‘Direct mixing and injection for high throughput fluidic systems’ Patent Application Number 20050249635) in conjunction with response. Intracellular Ca^2+ (Ca^2+i) levels were measured with Ca^2+ chelating fluorescent probes. […]
The probe-loaded CB1 and Control cell mixture was placed in the Cell Suspension System on the DSIS where they were continuously rocked to keep them in a suspended state. […] The DSIS software, NVS Sampler, recorded a timing file and the CyAn software, Summit, recorded a data file. These two files were then compiled and analyzed by our proprietary software, NVS Analyzer, to determine the percent of cells that responded to each concentration. The data was transferred to GraphPAD Prism for a non-linear regression curve fit that determined the EC50. […]

[3] = target: T3, CB2 receptor (Homo sapiens, UniProt P34972); assay: Ca2+i response to 2-AG in CB2 receptor bearing cells, dose-response with or without compound; assay type: cell-based; conditions: 2-AG with or without compound, FIG. 2
T3 construct: host or cells: CB2 receptor bearing cells (host not described)
T3 sequence (P34972 whole entry): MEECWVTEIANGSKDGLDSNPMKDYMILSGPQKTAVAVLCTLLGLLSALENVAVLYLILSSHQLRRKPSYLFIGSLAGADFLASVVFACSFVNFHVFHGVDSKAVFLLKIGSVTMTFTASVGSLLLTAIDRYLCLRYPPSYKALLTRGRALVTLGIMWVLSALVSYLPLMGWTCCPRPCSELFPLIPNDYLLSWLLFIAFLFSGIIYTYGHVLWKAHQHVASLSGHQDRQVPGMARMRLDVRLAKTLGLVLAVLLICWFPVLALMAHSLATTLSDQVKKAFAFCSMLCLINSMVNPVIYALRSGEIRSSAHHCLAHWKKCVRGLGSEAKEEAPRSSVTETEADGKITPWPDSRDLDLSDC

[4] = target: T4, mouse CB1 (mouse brain membrane) (Mus musculus, UniProt P47746); assay: competition ligand binding assay, mouse brain membrane preparations
T4 construct: human CB1 receptors or mouse brain membrane preparations in 96-well plate format; from tissue; host or cells: mouse brain membrane preparations
T4 sequence (P47746 whole entry): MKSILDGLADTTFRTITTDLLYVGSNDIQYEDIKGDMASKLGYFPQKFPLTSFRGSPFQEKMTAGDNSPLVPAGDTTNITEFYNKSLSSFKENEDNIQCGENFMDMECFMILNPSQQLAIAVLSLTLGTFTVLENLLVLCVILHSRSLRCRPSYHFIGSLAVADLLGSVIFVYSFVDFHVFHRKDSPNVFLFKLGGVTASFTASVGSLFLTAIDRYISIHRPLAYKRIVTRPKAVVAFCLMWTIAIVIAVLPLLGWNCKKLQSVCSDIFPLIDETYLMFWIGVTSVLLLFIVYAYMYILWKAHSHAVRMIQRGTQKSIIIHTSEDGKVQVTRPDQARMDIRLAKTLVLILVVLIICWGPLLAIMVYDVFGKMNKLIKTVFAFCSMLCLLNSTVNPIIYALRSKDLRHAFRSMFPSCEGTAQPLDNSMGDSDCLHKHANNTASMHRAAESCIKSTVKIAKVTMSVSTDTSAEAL
Procedure: (§1) Competition ligand binding assays were performed with the non-selective cannabinoid receptor agonist ([^3H]CP 55,940) (0.75 nM) in the binding buffer containing 50 mM Tris-HCl, pH 7.4, 3 mM MgCl2, 1 mM EDTA, 0.2% BSA using CHO-k1 cell membranes stably expressing human CB1 receptors or mouse brain membrane preparations in 96-well plate format. The receptor membranes (10 μg/well) were pre-incubated with different concentrations of tested compounds in the binding buffer at room temperature for 30 min prior to addition of 0.75 nM [^3H]CP 55,940 in a final volume of 100 μl. The binding was carried out at room temperature for another 2 h. To determine the non-specific binding, experiments were also performed in the presence of 10 μM unlabeled CP 55,940. Binding was terminated by addition of cold binding buffer and filtrated on Whatman GF/B glass-fiber filters using a sampling manifold. The filters were washed 6 times with cold binding buffer and air-dried overnight. The radioactivity was quantitated on a TopCounter (PerkinElmer) after adding scintillation fluid. Specific binding was defined as the difference between the binding in the presence and absence of 10 μM unlabeled CP 55, 940.

[5] = target: T1, CB1 receptor; assay: dissociation kinetics assay with [3H]CP 55,940 on CHO-k1 cell membranes; assay type: binding; design: expressed in transfected cells; host or cells: CHO-k1 cell membranes; conditions: 0.75 nM [3H]CP 55,940, room temperature, FIG. 3
Procedure: Dissociation kinetics assays were performed with the non-selective cannabinoid receptor agonist ([^3H]CP 55,940) (0.75 nM) in the binding buffer containing 50 mM Tris-HCl, pH 7.4, 3 mM MgCl2, 1 mM EDTA, 0.2% BSA using CHO-k1 cell membranes stably expressing human CB1 receptors in 96-well plate format. The CBI receptor membranes (10 μg/well) were incubated with 0.75 nM [^3H]CP 55,940 in 100 μl binding buffer at room temperature for 2 h. Dissociation was initiated with addition of 100 μl unlabeled CP 55,940 (10 μM) in binding buffer in the absence or presence of different concentrations of compounds (compound 7). Dissociation was carried out at room temperature for indicated time. To determine the non-specific binding, experiments were also performed in the presence of 10 μM unlabeled CP 55,940. Binding was terminated by addition of cold binding buffer and filtrated on Whatman GF/B glass-fiber filters using a sampling manifold. The filters were washed 6 times with cold binding buffer and air-dried overnight. The radioactivity was quantitated on a TopCounter (PerkinElmer) after adding scintillation fluid. Specific binding was defined as the difference between the binding in the presence and absence of 10 μM unlabeled CP 55,940.

[6] = target: T1, CB1 receptor; assay: [35S]GTPγS binding assay on CHO-k1 cell membranes; assay type: biochemical; design: expressed in transfected cells; host or cells: CHO-k1 cell membranes
Procedure: [^35S]GTPγS binding assays were performed with CHO-k1 cell membranes stably expressing human CB1 receptors in 96-well ScintiPlate (PerkinElmer). The membranes (12.5 μg/well) were preincubated with compound 7 in the binding buffer (50 mM Tris-HCl, pH 7.4, 100 mM NaCl, 3 mM MgCl2, 0.2 mM EDTA, 0.2% BSA and 10 μM GDP) at 30° C. for 30 min, then added various concentrations of agonists (WIN 55212-2 or CP 55,940) and [^35S]GTPγS (0.2 nM) in a final volume of 200 μl. Reactions were carried out at 30° C. for 60 min, followed by centrifugation of plate at […] for 15 min. After removing supernatant, the radioactivity was quantitated on a TopCounter.

[7] = target: T1, CB1 receptor; assay: competition ligand binding assay, CHO-k1 cell membranes; design: expressed in transfected cells; host or cells: CHO-k1 cell membranes; conditions: 0.75 nM radioligand, FIG. 6
Procedure: as §1

[8] = body weight of diet-induced obese male C57BL/6J mice, repeated oral administration for 28 days; assay type: in vivo; conditions: for reduction of body weight: 28 days dosing, diet-induced obese mice
Procedure: Sibutramine, which is currently used clinically, and rimonabant, which has recently received regulatory approval for the management of obesity were used as reference compounds.
Sixty-five C57BL/6J mice (7-8 weeks of age) were ordered from Charles River, Margate, Kent. Mice were group housed in polypropylene cages with free access to a high fat diet (D12451 45% of Kcal derived from fat; Research Diets, N.J., USA) and tap water at all times. Animals were maintained at 21±4° C. and 55±20% humidity on a normal phase 12 h light-dark cycle (lights on 04:30 h)
Animals were exposed to the high fat diet for 16 weeks. During this time body weight was recorded weekly. At the end of 14 weeks animals were singly housed in polypropylene cages for a further two week period (weeks 14-16) and placed on reverse phase lighting (lights off for 8 h from 9.30-17.30 h) during which time the room was illuminated by red light. Animals were dosed with vehicle orally throughout the baseline period. Body weight and food and water intake was recorded daily. Towards the end of the baseline period animals were allocated to one of seven groups (see table 2 below). Upon completion of the baseline period, mice were dosed for 28 days with vehicle or test drug as described below.
Body weight and food and water intake were recorded daily. Following drug administration the animals were examined and any overt behaviour was recorded. For all dosing, the morning session was timed such that approximately half the mice were dosed at the time of lights out (09:30).
The test compounds were dissolved in 1% methylcellulose. […] Drug doses were expressed as free base.
Resulting body weights, food intake and water intake were expressed as mean values ±SEM, and the SEMs are calculated from residuals of the statistical model. Body weight data was analysed by ANCOVA with Day 1 as covariate followed by appropriate comparisons (two-tailed) to determine significant differences from the control group. […] Daily food and water intake data was analysed by ANOVA.

[9] = acute administration: wet mash intake, food intake and body weight in lean male C57BL/6J mice; assay type: in vivo; conditions: 10 mg/kg orally, one-way ANOVA

T1 sequence (P21554 whole entry): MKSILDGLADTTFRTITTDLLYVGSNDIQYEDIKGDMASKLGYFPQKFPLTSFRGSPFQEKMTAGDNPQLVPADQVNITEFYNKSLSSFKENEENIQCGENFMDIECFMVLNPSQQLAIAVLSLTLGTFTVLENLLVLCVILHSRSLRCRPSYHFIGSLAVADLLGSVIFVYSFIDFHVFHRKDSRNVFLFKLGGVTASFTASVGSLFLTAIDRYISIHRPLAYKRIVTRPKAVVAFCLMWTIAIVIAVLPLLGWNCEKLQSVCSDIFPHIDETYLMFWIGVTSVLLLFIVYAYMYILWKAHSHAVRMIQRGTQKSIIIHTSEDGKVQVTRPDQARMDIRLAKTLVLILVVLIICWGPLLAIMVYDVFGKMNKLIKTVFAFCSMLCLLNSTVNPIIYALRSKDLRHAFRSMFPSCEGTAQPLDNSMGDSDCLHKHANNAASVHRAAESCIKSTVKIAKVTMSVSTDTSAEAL
T2 sequence (P21554 whole entry): as above

NCCC(Oc1ccc(C(F)(F)F)cc1)c1ccccc1 (racemic) [norfluoxetine, 3-(4-trifluoromethylphenoxy)-3-phenylpropylamine]
functional activity versus the CB1 receptor [1]: antagonist

CNCC[C@@H](Oc1ccc(C(F)(F)F)cc1)c1ccccc1 [(R)-fluoxetine]
functional activity versus the CB1 receptor [1]: antagonist

CNCC[C@H](Oc1ccc(C(F)(F)F)cc1)c1ccccc1 [(S)-Fluoxetine]
functional activity versus the CB1 receptor [1]: inverse agonist

Fc1ccc(C(OCCCc2c[nH]cn2)c2ccc(F)cc2)cc1 [compound 7]
effect on the 2-AG dose response (Ca2+i) of CB1 cells [2]: right shift
effect on the 2-AG dose response (Ca2+i) of CB2 receptor bearing cells [3]: No effect
inhibition of agonist (CP 55940) binding ([4]; mouse brain membrane, FIG. 7): inhibited
inhibition of antagonist/inverse agonist (SR 141716) binding ([4]; mouse brain membrane, FIG. 7): inhibited
inhibition of binding of [3H]CP 55,940 ([4]; mouse brain membranes, 0.75 nM radioligand, FIG. 6): almost fully inhibited
effect on the dissociation rate of [3H]CP 55,940 [5]: no effect
pA2 estimation using CP 55940 as an agonist ([6]; CB1 cell line, FIG. 4): did not support an allosteric effect
antagonist versus inverse agonist activity in [35S]GTPγS binding ([6]; response relative to basal levels, FIG. 5): inverse agonist activity
inhibition of binding of [3H]CP 55,940 [7]: partially inhibited

Cc1c(C(=O)NN2CCCCC2)nn(-c2ccc(Cl)cc2Cl)c1-c1ccc(Cl)cc1 [rimonabant]
reduction of body weight ([8]; 10 mg/kg po): 15%
weight reduction as compared to vehicle, significance ([8]; day 29, po, Dunnett's test p<0.001, FIG. 8): statistically significant weight reduction
24 hour body weight change, difference versus vehicle ([9]; FIG. 10): No significant differences
daily food intake, difference versus vehicle ([9]; FIG. 15): No significant differences
body weight, difference versus vehicle ([9]; FIG. 16): No significant differences

CC(C)CC(N(C)C)C1(c2ccc(Cl)cc2)CCC1 (stereo not drawn) [sibutramine]
reduction of body weight ([8]; 20 mg/kg po): 2%

From US20080027087A1 (AMPLA Pharmaceuticals, Inc., priority 2006, published 2008)
